Source: article PMC5013724 (Biochemistry, 2016)
Values after ≈ are worked out from the molar mass of the structure shown. “Also recorded” adds a separate entry of the source. Like-named read-outs stand apart in the source and are kept apart here.

Columns and labels:
[1] = target: TFR-PR^S17 precursor, p6pol/PR^S17 site (Human immunodeficiency virus type 1, UniProt P12497, E523D/G536V/I542V/L578M/M524I/M534L/N525D/V570S, form not given); type: biochemical, HIV-1; conditions: for Inhibition of autoprocessing of TFR-PR^S17, initial screening: after 60 min, overall autoprocessing; for Inhibition of the p6pol/PR site / Autoprocessing in the presence of inhibitor: 60 min
wild-type PR = conditions: read-out: Inhibition of PR Ki, published sources, similar values from different sources averaged, ref [48]–[50],[30]; cited from earlier work
[2] = target: TFR-PR^S17 precursor, TFP/p6pol site (Human immunodeficiency virus type 1, UniProt P12497, E523D/G536V/I542V/L578M/M524I/M534L/N525D/V570S, form not given); type: biochemical, HIV-1; conditions: 60 min
physchem = conditions: pH 5, aqueous buffer
mature PR^S17 [3] = type: biochemical, HIV-1; conditions: Ki for PR^S17 (kinetics) / Ki for PR
[4] = tested on: TFR-PR^S17 precursor, p6pol/PR^S17 site; type: biochemical, HIV-1; conditions: p6pol/PR^S17 site
mature PR^S17 [5] = tested on: mature PR^S17
PR20 = conditions: read-out: Ki for PR20; ref [34]; cited from earlier work
[6] = tested on: wild type TFR-PR precursor; conditions: read-out: IC50 for inhibition of autoprocessing of the wild type precursor; during expression in E. coli; ref [16]; cited from earlier work
TFR-PR20 = conditions: up to 150 μM inhibitor, expressed in E. coli; ref [16]; cited from earlier work
[7] = inhibitor 70 μM (limit of solubility)

CC(C)c1nc(CN(C)C(=O)N[C@H](C(=O)N[C@@H](Cc2ccccc2)C[C@H](O)[C@H](Cc2ccccc2)NC(=O)OCc2cncs2)C(C)C)cs1 [RTV, ritonavir]
Inhibition of autoprocessing of TFR-PR^S17, initial screening ([1]; inhibitor 50 μM): almost no inhibition

Cc1cccc(C)c1OCC(=O)N[C@@H](Cc1ccccc1)[C@@H](O)C[C@H](Cc1ccccc1)NC(=O)[C@H](C(C)C)N1CCCNC1=O [LPV, lopinavir]
Ki (wild-type PR): 0.02 nM | Inhibition of autoprocessing of TFR-PR^S17, initial screening ([1]; inhibitor 50 μM): almost no inhibition | Inhibition of the p6pol/PR site [1, 7]: ~ 50% | Inhibition of the TFP/p6pol site [2, 7]: insignificant inhibition | solubility (physchem): 70 µM (≈ 44 µg/mL)

COC(=O)N[C@H](C(=O)N[C@@H](Cc1ccccc1)[C@@H](O)CN(Cc1ccc(-c2ccccn2)cc1)NC(=O)[C@@H](NC(=O)OC)C(C)(C)C)C(C)(C)C [ATV, atazanavir]
Relative resistance (PR^S17/PR) (mature PR^S17 [3]): 2000 | Ki (wild-type PR): 0.035 nM | Autoprocessing in the presence of inhibitor ([1]; inhibitor 10 μM): complete autoprocessing | Difference in inhibition [autoprocessing, IC50/mature PR^S17, Ki] [4]: 214 | solubility (physchem): 42 µM (≈ 29.6 µg/mL)

CC(C)CN(C[C@@H](O)[C@H](Cc1ccccc1)NC(=O)O[C@H]1CCOC1)S(=O)(=O)c1ccc(N)cc1 [APV, amprenavir]
Fold higher affinity for PR^S17 relative to PR20 (mature PR^S17 [5]): 16 fold | Relative resistance (PR^S17/PR) (mature PR^S17 [5]; Ki for PR^S17 (ITC) / Ki for PR): 55 | Ki (wild-type PR): 0.2 nM | Autoprocessing in the presence of inhibitor ([1]; inhibitor 5 μM): complete autoprocessing | Inhibition of autoprocessing of TFR-PR^S17, initial screening ([1]; inhibitor 50 μM): almost complete inhibition | Difference in inhibition [autoprocessing, IC50/mature PR^S17, Ki] [4]: 682 | Ki (PR20): ~178 nM

CC(C)(C)NC(=O)[C@@H]1C[C@@H]2CCCC[C@@H]2CN1C[C@@H](O)[C@H](Cc1ccccc1)NC(=O)[C@H](CC(N)=O)NC(=O)c1ccc2ccccc2n1 [SQV, saquinavir]
Ki (wild-type PR): 0.39 nM | IC50 [6]: 1000 to 2000 nM | Inhibition of autoprocessing of the PR20 precursor (TFR-PR20): no inhibition; also recorded: not inhibited | Inhibition of autoprocessing of TFR-PR^S17, initial screening ([1]; inhibitor 50 μM): almost no inhibition

CC(C)CN(C[C@@H](O)[C@H](Cc1ccccc1)NC(=O)O[C@H]1CO[C@H]2OCC[C@H]21)S(=O)(=O)c1ccc(N)cc1 [DRV, darunavir]
Ki (wild-type PR): 0.005 nM | IC50 [6]: 1000 to 2000 nM | Inhibition of autoprocessing of the PR20 precursor (TFR-PR20): no inhibition; also recorded: not inhibited | Inhibition of autoprocessing of TFR-PR^S17, initial screening ([1]; inhibitor 50 μM): almost complete inhibition

Cc1c(O)cccc1C(=O)N[C@@H](CSc1ccccc1)[C@H](O)CN1C[C@H]2CCCC[C@H]2C[C@H]1C(=O)NC(C)(C)C [NFV, nelfinavir]
Relative resistance (PR^S17/PR) (mature PR^S17 [3]): 16300 | Ki (wild-type PR): 0.36 nM | Difference in inhibition [autoprocessing, IC50/mature PR^S17, Ki] [4]: >7.2 | solubility (physchem): 42 µM (≈ 23.8 µg/mL)

CC(C)(C)NC(=O)[C@@H]1CN(Cc2cccnc2)CCN1C[C@@H](O)C[C@@H](Cc1ccccc1)C(=O)N[C@H]1c2ccccc2C[C@H]1O [IDV, indinavir]
Ki (wild-type PR): 0.25 nM | Inhibition of the p6pol/PR site ([1]; inhibitor 50 μM): ~ 50% | Inhibition of autoprocessing of TFR-PR^S17, initial screening ([1]; inhibitor 50 μM): partial inhibition | Inhibition of the TFP/p6pol site ([2]; inhibitor 50 μM): insignificant inhibition
